From PubChem BioAssay (NCI) come the findings set out here.

Test systems include A498 renal; ACHN renal; HS 578T breast; LXFL 529 NSCLC; MDA-MB-435; NCI/ADR-RES ovarian; SF-268 CNS; SK-MEL-28 melanoma; T-47D breast.
Holding throughout (test): NCI-60 cell line screen, 48 h

Each structure is given as a SMILES string.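 Results reflect a 48-hour exposure of cells in 96-well plates to compound at five concentrations. Abbreviation: GI50, concentration required for 50% inhibition of growth. TGI marks complete inhibition of growth.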 Calls of active or inactive are those of the source. No stated cut-off is given here; in the data, active means GI50 below about 0.43 µM; inactive means the rest.

On to `COc1cc2c(cc1OC)C(SC)C(=O)N(Cc1cccc(OC)c1OC)CC2` (configuration not stated), for which the TGI was greater than 54.9 µM in the assay with A498 renal; greater than 81.6 µM in the assay with ACHN renal; greater than 24.6 µM with HS 578T breast; 39.5 µM with LXFL 529 NSCLC; 8.36 µM in the assay with MDA-MB-435; 88.8 µM with NCI/ADR-RES ovarian. Moreover, the results for the TGI in the assay with SF-268 CNS, with SK-MEL-28 melanoma and in the assay with T-47D breast were greater than 100 µM, greater than 42.3 µM and 21.2 µM, respectively.

Consider `O=C(Nc1ccc(Cl)c(Cl)c1)C1C(=O)N(c2ccc(Cl)c(Cl)c2)C(=O)/C1=N\O` (configuration not stated), for which the TGI in the assay with A498 renal is greater than 100 µM; in the assay on ACHN renal, greater than 100 µM; in the assay with LXFL 529 NSCLC, greater than 100 µM; with SF-268 CNS, greater than 100 µM; with SK-MEL-28 melanoma, 82.8 µM.

Regarding `C1CCN2CC3CONC3C2C1` (configuration not stated), the TGI in the assay on A498 renal, in the assay on ACHN renal, in the assay with LXFL 529 NSCLC, with SF-268 CNS and in the assay on SK-MEL-28 melanoma was greater than 100 µM in each case.

On to `Nc1c(-c2nc3ccccc3s2)[n+]([O-])c2ccccc2[n+]1[O-]`, for which the TGI was greater than 100 µM in the assay with A498 renal; 78 µM in the assay with ACHN renal; 77.6 µM in the assay on LXFL 529 NSCLC; 82.2 µM in the assay with SF-268 CNS; 61.5 µM in the assay on SK-MEL-28 melanoma.

As to `CN(C)CCNC(=O)c1cccc2cc3ccc4ccccc4c3nc12`, the TGI with A498 renal was determined as 0.0693 µM; with ACHN renal, 0.0561 µM; in the assay with LXFL 529 NSCLC, 0.665 µM; with SF-268 CNS, 1.2 µM; in the assay with SK-MEL-28 melanoma, 0.593 µM.

For the compound `c1ccc2c(c1)[O][Sn][O]2`, the GI50 with A498 renal was 41.2 µg/mL; in the assay on ACHN renal, 24.1 µg/mL; in the assay on SF-268 CNS it was 25.1 µg/mL; in the assay with SK-MEL-28 melanoma, 81.8 µg/mL. Besides, the TGI in the assay with A498 renal, in the assay on ACHN renal, with SF-268 CNS and in the assay with SK-MEL-28 melanoma was greater than 150 µg/mL in each case. The result in the assay on LXFL 529 NSCLC was inactive.

For `CCOC(=O)COc1cccc2occc(=O)c12`, the TGI in the assay on A498 renal, in the assay on ACHN renal, in the assay with LXFL 529 NSCLC, in the assay with SF-268 CNS and in the assay on SK-MEL-28 melanoma was greater than 100 µM each time.

As to `Cn1cc(NC(=O)c2cc(NC(=O)CCCCCCCC(=O)Nc3cc(C(=O)Nc4cc(C(=O)NCCC(=N)N)n(C)c4)n(C)c3)cn2C)cc1C(=O)NCCC(=N)N`, the TGI is 56.7 µM with A498 renal; greater than 100 µM in the assay with ACHN renal; 28.8 µM with LXFL 529 NSCLC; 45.9 µM in the assay with SF-268 CNS; 26.3 µM with SK-MEL-28 melanoma.

Regarding `NNC(=O)N/N=C1\CNC(=O)C(=O)C1c1nc2ccccc2s1` (configuration not stated), the TGI in the assay with A498 renal, in the assay on ACHN renal, in the assay on LXFL 529 NSCLC, with SF-268 CNS and with SK-MEL-28 melanoma was greater than 100 µM throughout.

For `O=c1c2cccc3cccc(c4n1CCCN=4)c32`, the TGI in the assay on A498 renal, in the assay with ACHN renal, in the assay with LXFL 529 NSCLC, with SF-268 CNS and with SK-MEL-28 melanoma was greater than 100 µM throughout.

Regarding `Cc1c(C)c2ccc(OC(C)C(=O)O)cc2oc1=O` (configuration not stated), the TGI with A498 renal, in the assay with ACHN renal, in the assay with LXFL 529 NSCLC, in the assay with SF-268 CNS and in the assay on SK-MEL-28 melanoma was greater than 100 µM each time.

With `O=c1[nH]c(=O)n(C2CC(O)C(O)C(CO)O2)cc1F` (configuration not stated), the TGI with A498 renal, with ACHN renal, in the assay with LXFL 529 NSCLC, with SF-268 CNS and in the assay on SK-MEL-28 melanoma was greater than 100 µM in each case.

On to `O=C1c2ccoc2C(=O)c2oc(=O)ccc21`, for which the TGI in the assay on A498 renal was greater than 85.9 µM; with ACHN renal, 8.43 µM; with LXFL 529 NSCLC, 15.2 µM; with SF-268 CNS it was 27.1 µM; with SK-MEL-28 melanoma, 11.5 µM.

On to `Nc1nc(-c2ccccc2)cc(-c2cc(Cl)ccc2O)n1`, for which the TGI in the assay with A498 renal is greater than 100 µM; in the assay on ACHN renal it was 72.3 µM; in the assay with LXFL 529 NSCLC it was greater than 100 µM; in the assay with SF-268 CNS, greater than 100 µM; in the assay on SK-MEL-28 melanoma, greater than 100 µM.

Regarding `NC(=O)C(=O)Cc1nc2ccccc2s1`, the TGI with A498 renal, with ACHN renal, with LXFL 529 NSCLC, with SF-268 CNS and in the assay with SK-MEL-28 melanoma was greater than 100 µM each time.

For `Cc1cc2c(cc1C)[n+](=O)c(C(=O)/C=C/c1ccccc1[N+](=O)[O-])c(C)n2[O-]`, the TGI in the assay on A498 renal was 91.8 µM; with ACHN renal it was 66.9 µM; in the assay with HS 578T breast, greater than 77.2 µM; with LXFL 529 NSCLC, greater than 100 µM; in the assay on MDA-MB-435 it was greater than 100 µM; with NCI/ADR-RES ovarian, greater than 100 µM. The TGI is 74.9 µM in the assay with SF-268 CNS, greater than 100 µM with SK-MEL-28 melanoma and greater than 100 µM in the assay on T-47D breast.

In the case of `O=C(O)C1=C(C(=O)O)Oc2ccccc2O1`, the TGI in the assay on A498 renal, with ACHN renal, in the assay on LXFL 529 NSCLC, with SF-268 CNS and with SK-MEL-28 melanoma was greater than 100 µM in each case.
